The results in this text go back to US9440952B2, “Compounds inhibiting leucine-rich repeat kinase enzyme activity” (Merck Sharp & Dohme Corp., priority 2013, dated 2016).

Structures are written as SMILES. Where two headings read alike, the source gives them in different places. Where only a bound is given, the exact number is not on record here.

This test deals with T1, LRRK2(G2019S mutation, GST-LRRK2(amino acids 970-2527)) (Homo sapiens, UniProt Q5S007, G2019S).
T1 construct: GST-LRRK2(amino acids 970-2527); GST (N); purchased Life Technologies Corporation
T1 sequence (Q5S007 970-2527 G2019S): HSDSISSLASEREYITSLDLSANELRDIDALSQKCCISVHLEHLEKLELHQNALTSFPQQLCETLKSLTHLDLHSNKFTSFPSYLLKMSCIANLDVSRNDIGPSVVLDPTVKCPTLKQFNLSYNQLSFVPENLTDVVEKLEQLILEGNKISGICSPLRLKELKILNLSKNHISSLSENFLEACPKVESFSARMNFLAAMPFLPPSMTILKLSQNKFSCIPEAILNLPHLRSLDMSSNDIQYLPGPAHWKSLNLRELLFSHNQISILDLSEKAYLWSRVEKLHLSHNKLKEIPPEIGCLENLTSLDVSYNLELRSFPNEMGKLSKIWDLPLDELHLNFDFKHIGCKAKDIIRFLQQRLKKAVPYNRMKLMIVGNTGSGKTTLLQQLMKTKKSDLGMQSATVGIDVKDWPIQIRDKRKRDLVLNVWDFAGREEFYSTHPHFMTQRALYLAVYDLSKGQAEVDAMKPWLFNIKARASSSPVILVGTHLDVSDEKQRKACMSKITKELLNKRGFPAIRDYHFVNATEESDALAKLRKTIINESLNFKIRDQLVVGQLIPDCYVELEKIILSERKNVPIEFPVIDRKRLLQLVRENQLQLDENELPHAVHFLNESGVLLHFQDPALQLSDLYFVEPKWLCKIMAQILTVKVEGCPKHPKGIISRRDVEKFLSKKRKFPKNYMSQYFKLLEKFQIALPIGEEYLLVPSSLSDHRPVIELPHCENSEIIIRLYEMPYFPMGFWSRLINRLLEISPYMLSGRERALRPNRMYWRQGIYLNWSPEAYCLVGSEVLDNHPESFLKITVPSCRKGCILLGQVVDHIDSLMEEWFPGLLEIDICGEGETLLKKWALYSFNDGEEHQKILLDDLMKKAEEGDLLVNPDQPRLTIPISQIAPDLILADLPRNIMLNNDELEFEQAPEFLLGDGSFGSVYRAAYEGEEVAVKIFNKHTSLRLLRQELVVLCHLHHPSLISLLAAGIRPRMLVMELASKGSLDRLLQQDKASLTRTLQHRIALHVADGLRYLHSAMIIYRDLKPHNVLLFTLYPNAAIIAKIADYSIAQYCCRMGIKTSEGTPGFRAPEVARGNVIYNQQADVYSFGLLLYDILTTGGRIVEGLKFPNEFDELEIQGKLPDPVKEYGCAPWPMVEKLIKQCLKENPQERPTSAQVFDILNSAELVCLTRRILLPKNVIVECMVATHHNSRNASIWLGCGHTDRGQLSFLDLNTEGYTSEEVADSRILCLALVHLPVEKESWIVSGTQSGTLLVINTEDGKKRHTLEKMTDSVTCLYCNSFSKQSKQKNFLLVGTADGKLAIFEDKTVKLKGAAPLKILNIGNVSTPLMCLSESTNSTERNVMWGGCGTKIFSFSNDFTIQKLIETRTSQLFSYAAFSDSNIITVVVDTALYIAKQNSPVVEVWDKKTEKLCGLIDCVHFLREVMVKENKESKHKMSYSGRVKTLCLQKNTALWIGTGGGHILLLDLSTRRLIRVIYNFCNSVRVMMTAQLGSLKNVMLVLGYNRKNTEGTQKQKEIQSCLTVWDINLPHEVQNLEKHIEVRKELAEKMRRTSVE
Description: LRRK2 Km ATP LanthaScreen Assay. It counts as biochemical. The gist of the method:
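IC50 values are means of several runs in the Km-ATP LanthaScreen format, analysed by curve fitting of the LanthaScreen read-out.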
On the technique in general: TR-FRET usually uses a lanthanide donor and a delayed reading to cut background.

Where [1] appears, read: Km ATP LanthaScreen, mean IC50 of several tests, read-out: LRRK2 IC50.
[2] abbreviates: Km ATP LanthaScreen Assay, LRRK2 G2019S, mean IC50 values, read-out: LRRK2 IC50.
The mark [3] stands for this setting: Km ATP LanthaScreen Assay; LRRK2 G2019S; mean IC50 values; Examples 185-215; read-out: LRRK2 IC5).

In the case of `OCc1ccc2[nH]nc(-c3ccnc(N4CCOCC4)c3)c2c1` [Example 86], the IC50 under setting [1] worked out at 16.4 nM.
`CS(=O)(=O)Cc1cc2c(-c3ccnc(N4CCOCC4)c3)n[nH]c2cc1F` [Example 372]: the IC50 under setting [1] amounted to 1210 nM.
The same measure, in the same setting: the figure for `COc1cccc(F)c1-c1ccc2[nH]nc(-c3ccnc(N4CCOCC4)c3)c2c1` [Example 314] is less than 0.6 nM.
Consider `FC1(F)CCN(c2cc(-c3n[nH]c4ccccc34)ccn2)CC1` [Example 28], for which the IC50 under setting [2] is 57 nM.
With `Oc1ccc2[nH]nc(-c3ccnc(N4CCCCC4)c3)c2c1` [Example 254], the IC50 under setting [2] worked out at 10.1 nM.
In the case of `CCOc1ccc2[nH]nc(-c3ccnc(N4CCN(S(C)(=O)=O)CC4)c3)c2c1` [Example 360], under setting [1], the IC50 was less than 0.6 nM.
Consider `CC(C)Oc1ccc2[nH]nc(-c3ccnc(N4CCN(C5CC5)CC4)c3)c2c1` [Example 210], for which the IC50 under setting [3] was 7.4 nM.
`CC(C)Oc1ccc2[nH]nc(-c3ccnc(N4CC5CCC(C4)O5)c3)c2c1` [Example 280]: the IC50 under setting [1] worked out at 5 nM.
Turning to `c1cc(-c2n[nH]c3ccc(OCCN4CCOCC4)cc23)cc(N2CCOCC2)n1` [Example 82], the IC50 under setting [2] amounted to 4.7 nM.
Regarding `Fc1ccc2c(-c3ccnc(N4CCOCC4)c3)n[nH]c2c1` [Example 392], the IC50 under setting [1] amounted to 32 nM.
Regarding `CC(C)Oc1ccc2[nH]nc(-c3ccnc(N4CCn5ccnc5C4)c3)c2c1` [Example 196], under setting [3], the IC50 amounted to 8.6 nM.
On the same count and under the same terms, next, `CCc1nnc2n1CCN(c1cc(-c3n[nH]c4ccc(OC(C)C)cc34)ccn1)C2` [Example 195]: 7.2 nM.
As to `Cc1ccc2[nH]nc(-c3ccnc(N4CCOCC4)c3)c2c1` [Example 124], the IC50 under setting [1] is 9.6 nM.
With `c1ccc(Cc2ccc3[nH]nc(-c4ccnc(N5CCOCC5)c4)c3c2)cc1` [Example 116], under setting [1], the IC50 worked out at 45 nM.
Turning to `FC1CCCN(c2cc(-c3n[nH]c4ccccc34)ccn2)C1` (stereo not drawn) [Example 21], under setting [2], the IC50 is 22 nM.
Consider `c1ccc(N2CCN(c3cc(-c4n[nH]c5ccccc45)ccn3)CC2)nc1` [Example 13], for which, under setting [2], the IC50 was 22 nM.
Regarding `CCN(c1cccc(C)c1)c1ccc2[nH]nc(-c3ccnc(N4CCOCC4)c3)c2c1` [Example 115], the IC50 under setting [1] stood at 1570 nM.
The same measure, in the same setting: next, `Cn1cc(-c2ccc3[nH]nc(-c4ccnc(N5CC[C@H](F)C5)c4)c3c2)cn1` [Example 278]: 1.9 nM.
As for `CC(C)(O)COc1ccc2[nH]nc(-c3ccnc(N4CCOCC4)c3)c2c1` [Example 348], under setting [1], the IC50 was determined as 14 nM.
On to `CC(C)CCNc1cc(-c2n[nH]c3ccc(Nc4cccc(S(C)(=O)=O)c4)cc23)ccn1` [Example 110], for which the IC50 under setting [2] is 83 nM.
In the case of `c1ccc2c(-c3ccnc(N4CCOCC4)c3)n[nH]c2c1` [Example 1], the IC50 under setting [1] came to 16 nM.
As to `Cn1cc(-c2ccc3[nH]nc(-c4ccnc(N5CCOC6(CC6)C5)c4)c3c2)cn1` [Example 379], the IC50 under setting [1] stood at 4.2 nM.
For `CO[C@H]1CN(c2cc(-c3n[nH]c4ccc(OC(F)(F)F)cc34)ccn2)C[C@@H]1O` [Example 238], the IC50 under setting [2] stood at 165 nM.
`CCOc1ccc2[nH]nc(-c3ccnc(N4CCn5ccnc5C4)c3)c2c1` [Example 226]: the IC50 under setting [2] is 18.9 nM.
For the compound `O=C(O)[C@H]1CCCN(c2cc(-c3n[nH]c4ccccc34)ccn2)C1` [Example 41], the IC50 under setting [2] is 24 nM.
For `COc1ccncc1-c1ccc2[nH]nc(-c3ccnc(N4CCOCC4=O)c3)c2c1` [Example 365], under setting [1], the IC50 amounted to 17 nM.
Still for that read-out and setting: next, `Cn1cc(-c2ccc3[nH]nc(-c4ccnc(N5CC6CCC(C5)O6)c4)c3c2)cn1` [Example 380]: 1.9 nM.
In the case of `Cc1nc2c(o1)CN(c1cc(-c3n[nH]c4ccc(OC(C)C)cc34)ccn1)CC2` [Example 198], under setting [3], the IC50 came to 9.2 nM.
As for `CC(C)Oc1ccc2[nH]nc(-c3ccnc(N4CCC(n5cnnc5)CC4)c3)c2c1` [Example 194], the IC50 under setting [3] was determined as 4.4 nM.
On to `CCOc1nccnc1-c1ccc2[nH]nc(-c3ccnc(N4CCOCC4)c3)c2c1` [Ex 390], for which the IC50 under setting [1] is 1.6 nM.
As to `c1cc(-c2n[nH]c3ccc(-c4cn[nH]c4)cc23)cc(N2CCOCC2)n1` [Example 344], the IC50 under setting [1] is less than 0.6 nM.
As to `COc1ncnc(C)c1-c1ccc2[nH]nc(-c3ccnc(N4CCOCC4)c3)c2c1` [Ex 331], the IC50 under setting [1] was determined as 59 nM.
The same measure, in the same setting: the figure for `Oc1ccc2[nH]nc(-c3ccnc(N4C5CCC4COC5)c3)c2c1` [Example 398] is 69 nM.
As to `CC(C)Oc1ccc2[nH]nc(-c3ccnc(NC(=O)c4ccccc4-n4cncn4)c3)c2c1` [Example 146], the IC50 under setting [2] amounted to 36.8 nM.
Still for that read-out and setting: the figure for `C1=CC(c2noc(C3CCN(c4cc(-c5n[nH]c6ccccc56)ccn4)CC3)n2)=CCC1` [Example 20] is 27 nM; for `FC1(F)CCN(c2cc(-c3n[nH]c4ccc(OC(F)(F)F)cc34)ccn2)C1` [Example 245] it is 1490 nM.
Turning to `CC(C)Oc1ccc2[nH]nc(-c3ccnc(NC(=O)c4ccnc(-n5cnnn5)c4)c3)c2c1` [Example 148], the IC50 under setting [2] was found to be 23.9 nM.
For the compound `Cc1nn(C)cc1-c1ccc2[nH]nc(-c3ccnc(N4CCOCC4)c3)c2c1` [Example 318], under setting [1], the IC50 turned out to be 17 nM.
Same read-out and setting: the figure for `CCOc1ccc2[nH]nc(-c3ccnc(N4CC(OC)C4)c3)c2c1` [Example 359] is 15 nM.
For the compound `COc1ccncc1-c1cc2c(-c3ccnc(N4CCOCC4)c3)n[nH]c2cc1F` [Example 323], the IC50 under setting [1] is less than 0.6 nM.
Turning to `c1ccc2c(-c3ccnc(N4CCC(N5CCOCC5)CC4)c3)n[nH]c2c1` [Example 27], the IC50 under setting [2] amounted to 32 nM.
On to `Cc1nnc(-c2ccc3[nH]nc(-c4ccnc(N5CCOCC5)c4)c3c2)o1` [Ex 342], for which, under setting [1], the IC50 amounted to 0.61 nM.
For `CS(=O)(=O)c1ccc2[nH]nc(-c3ccnc(N4CCOCC4)c3)c2c1` [Example 369], the IC50 under setting [1] is 109 nM.
Turning to `CO[C@H]1CCN(c2cc(-c3n[nH]c4ccc(OC(C)C)cc34)ccn2)C1` [Example 177], under setting [2], the IC50 was determined as 5.2 nM.
With `CCCOc1ccc2[nH]nc(-c3ccnc(N4CCN(C)C(=O)C4)c3)c2c1` [Example 293], under setting [1], the IC50 is 15 nM.
Regarding `CC(C)Oc1ccc2[nH]nc(-c3ccnc(NCCO)c3)c2c1` [Example 140], the IC50 under setting [2] was found to be 7.3 nM.
As for `Cn1cncc1-c1ccc2[nH]nc(-c3ccnc(N4CCOCC4)c3)c2c1` [Example 313], the IC50 under setting [1] is less than 0.6 nM.
Take `CCOc1ccc2[nH]nc(-c3ccnc(N4CC(C#N)(c5ccccc5)C4)c3)c2c1` [Example 219]: the IC50 under setting [2] amounted to 70 nM.
For `CC(C)Oc1ccc2[nH]nc(-c3ccnc(N4CCCC(c5nncn5C)C4)c3)c2c1` (stereo not drawn) [Example 193], the IC50 under setting [3] was 6.2 nM.
On to `c1ccc2c(-c3ccnc(N4CCN(CCCN5CCOCC5)CC4)c3)n[nH]c2c1` [Example 53], for which the IC50 under setting [2] turned out to be 18 nM.
Consider `Cn1cnc(-c2ccc3[nH]nc(-c4ccnc(N5CCOCC5)c4)c3c2)c1` [Example 343], for which the IC50 under setting [1] was 4.9 nM.
Regarding `CN(C)CC1(O)CCN(c2cc(-c3n[nH]c4ccccc34)ccn2)CC1` [Example 56], the IC50 under setting [2] was determined as 25 nM.
Same read-out and setting: the figure for `CCOc1ccc2[nH]nc(-c3ccnc(N4C5CCCC4CC5)c3)c2c1` [Example 228] is 48.9 nM.
`c1cc(-c2ccc3[nH]nc(-c4ccnc(N5CCOCC5)c4)c3c2)[nH]n1` [Example 346]: under setting [1], the IC50 was less than 0.6 nM.
As for `Cn1cnnc1-c1ccc2[nH]nc(-c3ccnc(N4CC(F)C4)c3)c2c1` [Example 309], the IC50 under setting [1] worked out at 1.8 nM.
For `CC(C)Oc1ccc2[nH]nc(-c3ccnc(NC(=O)C(C)C)c3)c2c1` [Example 154], the IC50 under setting [2] is 39.4 nM.
As for `CCOc1ccc2[nH]nc(-c3ccnc(N[C@@H](C)COC)c3)c2c1` [Example 356], the IC50 under setting [1] amounted to 10 nM.
Still for that read-out and setting: the figure for `CC(C)Oc1ccc2[nH]nc(-c3ccnc(N4CCN(C)C(C)C4)c3)c2c1` (stereo not drawn) [Example 384] is 2.2 nM.
As to `FC1(F)CCN(c2cc(-c3n[nH]c4ccc(OC(F)(F)F)cc34)ccn2)CC1` [Example 243], the IC50 under setting [2] turned out to be 1060 nM.
Turning to `N#CC1(c2ccccn2)CCN(c2cc(-c3n[nH]c4ccccc34)ccn2)CC1` [Example 17], under setting [2], the IC50 turned out to be 16 nM.
Turning to `Fc1ccc2[nH]nc(-c3ccnc(N4CCOCC4)c3)c2c1` [Example 391], under setting [1], the IC50 was 61 nM.
For the compound `COC1CCCN(c2cc(-c3n[nH]c4ccc(OC(C)C)cc34)ccn2)C1` (stereo not drawn) [Example 138], the IC50 under setting [2] stood at 11.4 nM.
Same read-out and setting: the figure for `CC1=NC2(CCCN(c3cc(-c4n[nH]c5ccccc45)ccn3)C2)C(=O)N1` (stereo not drawn) [Example 60] is 202 nM.
For the compound `Cc1nnc(-c2ccc3[nH]nc(-c4ccnc(N5CC(F)C5)c4)c3c2)o1` [Example 308], the IC50 under setting [1] came to 4.9 nM.
With `Cc1nonc1N1CCN(c2cc(-c3n[nH]c4ccc(OC(C)C)cc34)ccn2)CC1` [Example 207], the IC50 under setting [3] was 20.8 nM.
As to `CN(C)Cc1ccc2[nH]nc(-c3ccnc(N4CCOCC4)c3)c2c1` [Example 89], under setting [2], the IC50 was found to be 35 nM.
Consider `FCOc1ccc2[nH]nc(-c3ccnc(N4CCOCC4)c3)c2c1` [Example 85], for which, under setting [1], the IC50 came out at 10.2 nM.
The same measure, in the same setting: the figure for `FC(F)(F)Oc1ccc2[nH]nc(-c3ccnc(N4CCOCC4)c3)c2c1` [Example 374] is 28 nM.
Regarding `CC(C)Oc1ccc2[nH]nc(-c3ccnc(N4CC(S(C)(=O)=O)C4)c3)c2c1` [Example 184], under setting [2], the IC50 was 5.4 nM.
Same read-out and setting: the figure for `O=C1CCN(c2cc(-c3n[nH]c4ccccc34)ccn2)CCN1` [Example 72] is 57 nM; for `CS(=O)(=O)C1CN(c2cc(-c3n[nH]c4ccc(O)cc34)ccn2)C1` [Example 255] it is 30.8 nM.
As for `COc1cnccc1-c1ccc2[nH]nc(-c3ccnc(N4CCOCC4)c3)c2c1` [Example 102], the IC50 under setting [2] was determined as 0.2 nM.
As for `CN(C)CCC(Nc1cc(-c2n[nH]c3ccccc23)ccn1)c1ccccn1` (stereo not drawn) [Example 45], the IC50 under setting [2] amounted to 72 nM.
For `Cc1cc2[nH]nc(-c3ccnc(N4CCOCC4)c3)c2cc1OC(C)C` [Example 397], under setting [1], the IC50 came out at 167 nM.
As for `c1ccc2c(-c3ccnc(NCCCn4ccnc4)c3)n[nH]c2c1` [Example 42], under setting [2], the IC50 came out at 31 nM.
